Our source for the melting point, EC50 and IC50 values is patent US20240043450A1, “NEW COMPOUND” (JANSSEN PHARMACEUTICA NV, priority 2020, published 2024).

One data set concerns TNF. Briefly: PBMC assay: TNF cytokine levels in supernatant of LPS-stimulated human PBMCs (MSD). Type of data set: cell-based. Particulars: Homo sapiens, PBMC, 30 min compound pre-incubation, 100 ng/ml LPS for 6 hrs. Here is the method: (§1) Peripheral venous blood was collected from healthy individuals and human peripheral blood mononuclear cells (PBMCs) were isolated from blood by Ficoll-Histopaque (Sigma-Aldrich, A0561) density gradient centrifugation. After isolation, PBMCs were stored in liquid nitrogen for later use. Upon thawing, PBMC cell viability was determined in growth medium (RPMI media supplemented with 10% fetal bovine serum, 1% Pen-Strep and 1% L-glutamine). Compounds were spotted in a 1:3 serial dilution in DMSO and diluted to the final concentration in 30 μl medium in 96 well plates (Falcon, 353072). PBMCs were added at a density of 7.5×10^4 cells per well and incubated for 30 min in a 5% CO2 incubator at 37° C. LPS stimulation was performed by addition of 100 ng/ml LPS (final concentration, Invivogen, tlrl-smlps) for 6 hrs followed by collection of cellular supernatant and the analysis of IL-1β […] and TNF cytokines levels […] via MSD technology according to manufacturers' guidelines (MSD, K15A0H).
The IC50 values (for IL-1β) and EC50 values (TNF) were obtained on compounds of the invention/examples, and are depicted in the following table: […]

The next data set deals with T1, NLRP3 (Homo sapiens, UniProt Q96P20).
T1 construct: human peripheral blood mononuclear cells (PBMCs) were isolated from blood; endogenous in cells; host or cells: primary human PBMCs from healthy donors
Put plainly: PBMC assay: IL-1β levels in supernatant of LPS-stimulated human PBMCs (MSD). Format: cell-based. Particulars: 30 min compound pre-incubation, 100 ng/ml LPS for 6 hrs, IL-1β in supernatant, read-out: IL-1B IC50. How it is done:
The activity of a compound according to the present invention can be assessed by in vitro methods.
as §1, with “Compounds were spotted in a 1:3 serial dilution in DMSO and diluted to the final concentration in 30 μl medium in 96 well plates (Falcon, 353072).” left out

T1 sequence (Q96P20 whole entry): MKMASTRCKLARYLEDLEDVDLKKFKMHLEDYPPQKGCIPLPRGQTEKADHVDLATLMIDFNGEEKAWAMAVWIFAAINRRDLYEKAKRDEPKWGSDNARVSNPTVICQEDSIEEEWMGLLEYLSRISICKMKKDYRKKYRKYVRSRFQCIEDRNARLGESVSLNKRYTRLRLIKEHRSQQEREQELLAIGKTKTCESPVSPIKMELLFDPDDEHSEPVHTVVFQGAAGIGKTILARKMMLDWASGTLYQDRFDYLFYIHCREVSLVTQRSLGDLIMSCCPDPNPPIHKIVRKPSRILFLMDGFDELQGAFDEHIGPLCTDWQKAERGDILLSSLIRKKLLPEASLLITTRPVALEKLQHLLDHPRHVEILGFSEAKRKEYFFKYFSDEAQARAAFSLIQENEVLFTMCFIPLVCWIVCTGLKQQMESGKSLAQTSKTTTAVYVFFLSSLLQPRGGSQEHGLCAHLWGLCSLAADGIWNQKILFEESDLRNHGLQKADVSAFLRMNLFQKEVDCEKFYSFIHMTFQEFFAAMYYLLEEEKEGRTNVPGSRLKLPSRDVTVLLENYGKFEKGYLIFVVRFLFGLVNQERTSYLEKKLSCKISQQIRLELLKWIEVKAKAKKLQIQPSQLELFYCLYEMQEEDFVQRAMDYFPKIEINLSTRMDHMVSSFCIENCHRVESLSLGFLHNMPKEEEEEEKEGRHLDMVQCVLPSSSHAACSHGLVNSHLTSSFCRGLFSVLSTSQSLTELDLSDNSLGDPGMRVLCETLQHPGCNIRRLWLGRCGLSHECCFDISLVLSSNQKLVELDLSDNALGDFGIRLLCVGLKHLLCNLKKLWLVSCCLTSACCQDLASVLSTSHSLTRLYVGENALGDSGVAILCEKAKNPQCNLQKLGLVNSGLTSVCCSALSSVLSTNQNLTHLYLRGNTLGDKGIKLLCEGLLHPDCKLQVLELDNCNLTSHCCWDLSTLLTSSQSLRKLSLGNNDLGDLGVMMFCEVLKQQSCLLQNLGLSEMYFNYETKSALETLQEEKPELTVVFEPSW

As to `Cc1nnc2cc(NC(=O)Cn3nc(C(C)C)c4nc(C5CC5)sc4c3=O)ccn12` [F-35], the melting point was found to be 282.4 °C. In addition, in the data set on TNF, the EC50 is over 20000 nM. Besides, the IC50 on NLRP3 was determined as 1190 nM.
For `CC(C)c1nn(CC(=O)Nc2cnc3nccn3c2)c(=O)c2sc(C3CC3)nc12` [F-37] the same measures were 147.1 °C, over 20000 nM and 247 nM.
Regarding `CC(C)c1nn(CC(=O)Nc2ccn3ncnc3c2)c(=O)c2sc(C3CC3)nc12` [F-38], the melting point came out at 203.8 °C. The compound also gave a half-maximal effective concentration (EC50) in the data set on TNF of 15700 nM. For the same compound, the half-inhibitory concentration (IC50) at NLRP3 is 354 nM.
For `CC(C)c1nn(CC(=O)Nc2ccc3nnc(C(F)F)n3c2)c(=O)c2sc(C3CC3)nc12` [F-39] the same measures were 216.3 °C, 13100 nM and 446 nM.
Regarding `CC(C)c1nn(CC(=O)Nc2cc(Br)c3nncn3c2)c(=O)c2sc(C3CC3)nc12` [F-41, N-(8-bromo-[1,2,4]triazolo[4,3-a]pyridin-6-yl)-2-(2-cyclopropyl-4-isopropyl-7-oxothiazolo[4,5-d]pyridazin-6(7H)-yl)acetamide], the melting point came to 280.9 °C. For the same compound, the EC50 in the data set on TNF is over 20000 nM. Further, the IC50 on NLRP3 came to 265 nM.
Taken in the same sequence, the figures for `CC(C)c1nn(CC(=O)Nc2ccc3ncoc3c2)c(=O)c2sc(C3CC3)nc12` [F-43] were 194.9 °C, 9620 nM and 102 nM.
`CC(C)c1nn(CC(=O)Nc2ccc(C(F)F)nc2)c(=O)c2sc(C3CC3)nc12` [F-45] displayed a melting point of 170.1 °C. Further, in the data set on TNF, the EC50 was determined as 17400 nM. At NLRP3, the half-inhibitory concentration (IC50) was determined as 907 nM.
`CC(C)c1nn(CC(=O)Nc2ccc(=O)n(C)c2)c(=O)c2sc(C3CC3)nc12` [F-46]: the melting point was 240.9 °C. The compound also had an EC50 in the data set with TNF of over 20000 nM. Moreover, the IC50 on NLRP3 came out at 137 nM.
For `CC(C)c1nn(CC(=O)Nc2cc(Cl)c(=O)n(C(F)F)c2)c(=O)c2sc(C3CC3)nc12` [F-48] the same measures were 206.7 °C, 17900 nM and 1450 nM.
The compound `CC(C)c1nn(CC(=O)Nc2ccc3nnc(C(F)(F)F)n3n2)c(=O)c2sc(C3CC3)nc12` [F-49, 2-(2-cyclopropyl-4-isopropyl-7-oxo-thiazolo[4,5-d]pyridazin-6-yl)-N-[3-(trifluoromethyl)-[1,2,4]triazolo[4,3-b]pyridazin-6-yl]acetamide] came in with a melting point of 223.8 °C. In the data set on TNF, this compound displayed an EC50 of over 20000 nM. In addition, the half-maximal inhibitory concentration (IC50) at NLRP3 was 462 nM.
`CC(C)c1nn(CC(=O)Nc2cc(C(F)(F)F)ncn2)c(=O)c2sc(C3CC3)nc12` [F-50] showed a melting point of 172 °C. The compound also showed a 50% effective concentration (EC50) with TNF of over 20000 nM. The IC50 at NLRP3 is over 20000 nM.
Regarding `CC(C)c1nn(CC(=O)Nc2ccc3nccn3n2)c(=O)c2sc(C(C)(F)F)nc12` [F-53], the melting point was found to be 206.5 °C. Moreover, the concentration for a half-maximal effect (EC50) in the data set on TNF is 11900 nM. Also, the IC50 on NLRP3 was 215 nM.
`O=C(Cn1nc(C2CC2)c2nc(C3CC3)sc2c1=O)Nc1ccc2nncn2n1` [F-54] yielded a melting point of 248.3 °C. Moreover, the concentration giving a half-maximal response (EC50) with TNF is about 17300 nM. Further, the IC50 on NLRP3 stood at 150 nM.
For `CC(C)c1nn(CC(=O)Nc2cc(F)[nH]c(=O)c2)c(=O)c2sc(C3CC3)nc12` [F-55] the same measures were 292.7 °C, over 20000 nM and 443 nM.
The compound `Cc1nnc2ccc(NC(=O)Cn3nc(C(C)C)c4nc(C5CC5)sc4c3=O)nn12` [F-56] registered a melting point of 250 °C. Further, in the data set with TNF, the midpoint of the response, the EC50, lay at 10800 nM. Moreover, at NLRP3, the 50% inhibitory concentration (IC50) turned out to be 110 nM.
Taken in the same sequence, the figures for `CC(C)c1nn(CC(=O)Nc2ccc3nncn3n2)c(=O)c2sc(C3CC3)nc12` [F-57] were 245.4 °C, 4890 nM and 19 nM.
Take `CC(C)c1nn(CC(=O)Nc2ccc3nccn3n2)c(=O)c2sc(C3CC3)nc12` [F-59]: the melting point worked out at 201.7 °C. The 50% effective concentration (EC50) in the data set on TNF is 2160 nM. Besides, the IC50 on NLRP3 was 69 nM.
